Laboratory results reported in PMC12302426, “Dihydrokoumine, a dual-target analgesic with reduced side effects isolated from a traditional Chinese medicine” (Journal of Advanced Research, 2024).

Tests used:
[1] = tested on: C57BL/6 male mice; experiment: Rotarod test (motor coordination, sedation); assay type: in vivo; settings: DK 20, 40 mg/kg i.p., one hour before testing
Procedure: Motor coordination were evaluated by the rotarod test, which was conducted as previously reported. Six-week-old C57BL/6 male mice were used in […] (n = 6). Mice underwent a three-day training period, twice daily (9:00 am and 3:00 pm), to make them stay balanced on the rotarod apparatus (Columbus), with a 3 cm diameter and rotating at a constant 11 rpm. Motor coordination was evaluated through mice's endurance on the rotating rod. Selection criteria included mice maintaining balance for 60–120 s. On the fourth day, mice were intraperitoneally injected (5 mL/kg) with a solvent mixture, morphine (5 mg/kg), or DK (20, 40 mg/kg) one hour before testing. Latency to fall (in seconds) was recorded after placing mice on the rotarod, with a 120-second cut-off time.

[2] = biological target: T1, M3R (Homo sapiens, UniProt P20309); experiment: FLIPR Ca2+ antagonist assay in HEK293-M3 cells (carbachol-induced); assay type: cell-based
T1 construct: expressed in transfected cells; host or cells: HEK293 cell membranes
Procedure: FLIPR assay was carried out as reported earlier. Cell lines were seeded in 96-well plates with black walls (Greiner, USA) at 8.0 × 10^4 cells per well. After approximately 22 h of incubation, the cells were exposed to Calcium-6 dye (Molecular Devices, USA) in HBSS buffer supplemented with 20 mM HEPES (pH 7.4) at 37°C for one hour. Samples, redissolved in DMSO and housed in 96-well drug plates, underwent dilution with FLIPR buffer and subsequent automated introduction to the cells. […] In FLIPR antagonist experiments, cells were pre-incubated with the compound for 10 min prior to introducing a specified concentration of agonist. Results were presented as fluorescence (arbitrary units) plotted against time.

[3] = biological target: T2, NOP opioid receptor (Homo sapiens, UniProt P41146); experiment: DMR agonist and desensitization assay in HEK293-NOP cells; assay type: cell-based
T2 construct: expressed in transfected cells; host or cells: HEK293-NOP
Procedure: (§1) DMR assays were performed using an Epic® BT system (Corning, NY, USA). All used cell lines were directly seeded in Epic 384-well biosensor microplates with a seeding density of 25,000 cells per well. After being cultured for about 22 h, the cells formed a monolayer with a confluency of about 95 % in the cell culture medium. Then the cells were manually washed using assay buffer (1 × HBSS buffer, 10 mM HEPES, pH = 7.4) and maintained in 30 μL of the assay buffer for 1 h. All samples were dissolved in DMSO and diluted freshly with the assay buffer containing 0.1 % BSA.
(§2) The DMR assays were conducted as follows. […] In the case of the DMR desensitization assay, cells were pretreated with analytes for one hour before introducing a specific agonist at the indicated concentration, and the agonist-induced DMR signals were monitored for one hour. Finally, for the DMR antagonist assay, cells underwent a 1-hour pretreatment with an antagonist before the addition of a specific agonist at the indicated concentration, and subsequent DMR signals were recorded over one hour.
The receptor selectivity was evaluated against a set of G protein-coupled receptors (GPCRs), including opioid receptor (Delta/Kappa/NOP), dopamine receptor (D1/D2), orphan receptor (GPR35), adrenergic receptor (α2A/β2), serotonin receptor (5HT2A), histamine receptor (H1) and cannabinoid receptor (CB1). […]

[4] = biological target: T3, dopamine receptor D2 (Homo sapiens, UniProt P14416); experiment: DMR desensitization assay, HEK293-D2, probe dopamine; assay type: cell-based; settings: 100 μM DK
T3 construct: expressed in transfected cells; host or cells: HEK293-D2
Procedure: as §1
(§3) The receptor selectivity was evaluated against a set of G protein-coupled receptors (GPCRs), including opioid receptor (Delta/Kappa/NOP), dopamine receptor (D1/D2), orphan receptor (GPR35), adrenergic receptor (α2A/β2), serotonin receptor (5HT2A), histamine receptor (H1) and cannabinoid receptor (CB1). Following a 1-hour pretreatment with DK, a 2-min baseline was established before introducing probes and monitoring DMR signals for another hour. The cells and probes were as follows: Delta, HEK293-Delta, SNC162; Kappa, HEK293-Kappa, ICI199441; NOP, HEK293-NOP, MCOPPB; D1, HEK293-D1, dopamine; D2, HEK293-D2, dopamine; GPR35, CHO-K1-hGPR35, zaprinast; 5HT2A, HEK293-5HT2A, 5-hydroxytryptamine; α2A, HEK293-α2A, L-Noradrenaline; β2, A431, isoprenaline; H1, A431, histamine; CB1, CHO-K1-CB1, CP 55940. […]

[5] = biological target: T4, MOR (Homo sapiens, UniProt P35372); experiment: Radioligand binding assay, [3H] DAMGO; settings: [3H] DAMGO 0.5 nM
T4 construct: expressed in transfected cells; host or cells: HEK293 cell membranes
Procedure: Radioligand binding assays were conducted using MicroBeta2 (PerkinElmer, USA). Membrane protein preparations MOR and M3R were each prepared at a concentration of 2.5 µg/well. The radio ligands [^3H] DAMGO (specific for MOR) and [^3H]-NMS (specific for M3R) were prepared at concentrations of 0.5 nM and 0.2 nM, respectively. […] For each well, 1 µL of the serially diluted test compounds was transferred, followed by the addition of 100 µL of membrane stock solution and 100 µL of radioligand. The plates were sealed and shaken at 300 rpm at room temperature for one hour. Upon completion of the binding assay, the contents of each well were filtered through Unifilter-96 GF/C filter plates (PerkinElmer, USA). The filter plates were dried for one hour at 50°C and sealed. The trapped ^3H (tritium) on the filters was then quantified using the MicroBeta2. The percentage of inhibition or binding was subsequently calculated.

[6] = tested on: C57BL/6 male mice; experiment: Antinociceptive tolerance, repeated injection over 7 days, hot-plate assay; assay type: in vivo; settings: DK 20 and 40 mg/kg daily over 7 days, compared with morphine 5 mg/kg
Procedure: Subsequent tolerance assessment was conducted through a repeated-injection protocol employing the hot-plate assay. Mice were injected intraperitoneally (5 mL/kg) with the solvent mixture, morphine (5 mg/kg) or DK (20, 40 mg/kg) daily for a continuous seven-day period. The diminishment of the antinociception of drugs in the assay was employed to evaluate the tolerance, with latency measured one hour after drug administration throughout the week.

[7] = biological target: T5, Delta opioid receptor (Homo sapiens, UniProt P41143); experiment: DMR agonist and desensitization assay in HEK293-Delta cells; assay type: cell-based
T5 construct: expressed in transfected cells; host or cells: HEK293-Delta
Procedure: as §1, §2
The receptor selectivity was evaluated against a set of G protein-coupled receptors (GPCRs), including opioid receptor (Delta/Kappa/NOP), dopamine receptor (D1/D2), orphan receptor (GPR35), adrenergic receptor (α2A/β2), serotonin receptor (5HT2A), histamine receptor (H1) and cannabinoid receptor (CB1). Following a 1-hour pretreatment with DK, a 2-min baseline was established before introducing probes and monitoring DMR signals for another hour. The cells and probes were as follows: Delta, HEK293-Delta, SNC162; Kappa, HEK293-Kappa, ICI199441; NOP, HEK293-NOP, MCOPPB; D1, HEK293-D1, dopamine; D2, HEK293-D2, dopamine; GPR35, CHO-K1-hGPR35, zaprinast; 5HT2A, HEK293-5HT2A, 5-hydroxytryptamine; α2A, HEK293-α2A, L-Noradrenaline; β2, A431, isoprenaline; H1, A431, histamine; CB1, CHO-K1-CB1, CP 55940. The other detailed process was the same as above.

[8] = biological target: T6, mu opioid receptor (MOR) (Homo sapiens, UniProt P35372); experiment: DMR assay in HEK293T-Mu cells (agonist, desensitization, antagonist); assay type: cell-based
T6 construct: expressed in transfected cells; host or cells: HEK293T-Mu
Procedure: as §1, §2

[9] = biological target: T7, adrenergic receptor β2 (Homo sapiens, UniProt P07550); experiment: DMR desensitization assay, A431, probe isoprenaline; assay type: cell-based; settings: 100 μM DK
T7 construct: endogenous in cells; host or cells: A431
Procedure: as §1, §3

[10] = biological target: T8, adrenergic receptor α2A (Homo sapiens, UniProt P08913); experiment: DMR desensitization assay, HEK293-α2A, probe L-Noradrenaline; assay type: cell-based; settings: 100 μM DK
T8 construct: expressed in transfected cells; host or cells: HEK293-α2A
Procedure: as §1, §3

T6 sequence (P35372 whole entry): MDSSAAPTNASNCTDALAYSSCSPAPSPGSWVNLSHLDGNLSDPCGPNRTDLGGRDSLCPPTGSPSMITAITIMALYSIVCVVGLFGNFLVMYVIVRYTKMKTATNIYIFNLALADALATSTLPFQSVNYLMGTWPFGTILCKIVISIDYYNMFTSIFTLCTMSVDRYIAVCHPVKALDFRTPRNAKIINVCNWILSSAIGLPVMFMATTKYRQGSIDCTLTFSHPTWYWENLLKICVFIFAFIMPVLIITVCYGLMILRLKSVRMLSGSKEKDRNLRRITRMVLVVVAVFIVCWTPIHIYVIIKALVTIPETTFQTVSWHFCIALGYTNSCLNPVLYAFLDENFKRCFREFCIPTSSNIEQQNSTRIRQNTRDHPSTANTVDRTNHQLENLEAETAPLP
T5 sequence (P41143 whole entry): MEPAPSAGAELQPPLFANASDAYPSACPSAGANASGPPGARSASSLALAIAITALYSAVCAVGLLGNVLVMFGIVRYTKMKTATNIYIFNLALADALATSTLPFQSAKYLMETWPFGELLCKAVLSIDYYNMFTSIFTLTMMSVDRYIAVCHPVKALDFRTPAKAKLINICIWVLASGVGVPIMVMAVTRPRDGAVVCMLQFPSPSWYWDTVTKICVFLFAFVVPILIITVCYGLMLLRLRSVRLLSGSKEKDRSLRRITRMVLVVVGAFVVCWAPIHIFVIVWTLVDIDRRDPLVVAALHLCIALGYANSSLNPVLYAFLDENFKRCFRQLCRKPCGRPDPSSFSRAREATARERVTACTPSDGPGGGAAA
T1 sequence (P20309 whole entry): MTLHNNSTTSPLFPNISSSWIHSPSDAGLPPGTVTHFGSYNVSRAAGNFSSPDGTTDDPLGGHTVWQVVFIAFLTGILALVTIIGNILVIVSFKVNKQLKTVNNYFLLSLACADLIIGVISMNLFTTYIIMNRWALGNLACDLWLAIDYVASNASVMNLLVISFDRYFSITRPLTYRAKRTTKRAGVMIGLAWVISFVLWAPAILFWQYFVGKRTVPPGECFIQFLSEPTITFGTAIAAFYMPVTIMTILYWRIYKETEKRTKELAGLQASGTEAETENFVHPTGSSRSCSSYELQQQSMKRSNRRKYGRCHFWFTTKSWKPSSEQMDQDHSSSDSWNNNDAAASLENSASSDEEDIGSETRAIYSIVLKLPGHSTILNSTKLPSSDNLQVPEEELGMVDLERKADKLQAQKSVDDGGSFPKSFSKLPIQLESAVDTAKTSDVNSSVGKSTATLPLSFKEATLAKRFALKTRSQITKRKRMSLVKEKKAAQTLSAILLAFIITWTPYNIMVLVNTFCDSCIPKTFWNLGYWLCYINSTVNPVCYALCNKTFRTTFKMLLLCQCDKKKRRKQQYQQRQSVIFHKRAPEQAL
T4 sequence (P35372 whole entry): as the sequence (P35372 whole entry) above
T2 sequence (P41146 whole entry): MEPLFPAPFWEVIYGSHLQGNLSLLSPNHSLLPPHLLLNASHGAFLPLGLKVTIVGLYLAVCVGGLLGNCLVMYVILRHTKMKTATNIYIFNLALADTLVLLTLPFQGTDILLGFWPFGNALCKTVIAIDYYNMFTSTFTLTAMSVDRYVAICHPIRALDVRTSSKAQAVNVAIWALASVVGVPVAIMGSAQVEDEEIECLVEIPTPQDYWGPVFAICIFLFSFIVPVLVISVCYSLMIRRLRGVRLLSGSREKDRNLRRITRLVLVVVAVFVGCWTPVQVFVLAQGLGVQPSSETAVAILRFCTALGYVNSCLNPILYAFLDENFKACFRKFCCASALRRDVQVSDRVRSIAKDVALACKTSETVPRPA
T7 sequence (P07550 whole entry): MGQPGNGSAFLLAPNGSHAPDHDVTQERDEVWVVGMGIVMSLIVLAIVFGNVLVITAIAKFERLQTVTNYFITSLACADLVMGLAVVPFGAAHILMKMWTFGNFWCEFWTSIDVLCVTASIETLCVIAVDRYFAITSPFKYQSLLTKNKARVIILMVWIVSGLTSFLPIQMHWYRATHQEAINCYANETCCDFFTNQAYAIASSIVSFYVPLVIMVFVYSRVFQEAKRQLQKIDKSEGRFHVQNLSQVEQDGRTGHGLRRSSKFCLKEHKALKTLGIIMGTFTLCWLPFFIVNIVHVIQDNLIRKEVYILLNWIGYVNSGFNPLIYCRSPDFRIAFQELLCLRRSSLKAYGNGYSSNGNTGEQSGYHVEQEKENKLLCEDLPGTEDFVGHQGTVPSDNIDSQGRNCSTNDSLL
T3 sequence (P14416 whole entry): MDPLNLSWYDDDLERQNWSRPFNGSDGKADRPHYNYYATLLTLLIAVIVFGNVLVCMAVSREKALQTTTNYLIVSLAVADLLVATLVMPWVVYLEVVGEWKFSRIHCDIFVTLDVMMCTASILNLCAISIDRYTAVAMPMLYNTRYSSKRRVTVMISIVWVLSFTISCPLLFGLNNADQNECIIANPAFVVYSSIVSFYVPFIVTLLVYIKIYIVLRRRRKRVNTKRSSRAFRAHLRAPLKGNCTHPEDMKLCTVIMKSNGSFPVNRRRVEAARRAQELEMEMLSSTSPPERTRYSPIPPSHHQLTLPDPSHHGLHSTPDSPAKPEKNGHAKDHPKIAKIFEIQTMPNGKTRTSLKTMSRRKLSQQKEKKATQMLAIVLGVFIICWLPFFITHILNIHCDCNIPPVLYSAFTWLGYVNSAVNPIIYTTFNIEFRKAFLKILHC
T8 sequence (P08913 whole entry): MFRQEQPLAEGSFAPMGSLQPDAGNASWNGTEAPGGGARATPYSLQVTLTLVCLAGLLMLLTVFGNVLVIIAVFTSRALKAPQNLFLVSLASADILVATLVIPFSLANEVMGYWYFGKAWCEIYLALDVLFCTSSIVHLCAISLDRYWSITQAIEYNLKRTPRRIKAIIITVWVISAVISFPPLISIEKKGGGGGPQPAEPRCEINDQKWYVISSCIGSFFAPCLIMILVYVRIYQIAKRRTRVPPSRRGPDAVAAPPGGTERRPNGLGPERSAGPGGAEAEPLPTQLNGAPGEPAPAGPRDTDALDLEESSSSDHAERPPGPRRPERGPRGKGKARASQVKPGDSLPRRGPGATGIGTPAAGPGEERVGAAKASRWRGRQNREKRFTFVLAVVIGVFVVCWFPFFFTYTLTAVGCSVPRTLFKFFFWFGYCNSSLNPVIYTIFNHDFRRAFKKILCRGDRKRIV

Structure (SMILES): C=CC12CN(C)C3CC14c1ccccc1NC4C1CC2C3CO1 (stereo not drawn) [DK]
- sedative effect (locomotion, latency to fall) [1]: not a sedative at the tested doses
- IC50 ([2]; FLIPR, 5 nM carbachol (Fig. 2D), read-out: IC50 for inhibition of carbachol-induced Ca2+ response): 11.6 ± 4.31 µM
- concentration-dependent inhibition of carbachol-induced Ca2+ response at M3R compared with purified DK ([2]; semisynthesized material): its activity was close to that of purified DK
- DMR agonist response ([3]; HEK293-NOP cells): unable to trigger a concentration-dependent DMR response
- probe-induced DMR response after DK pretreatment ([3]; HEK293-NOP, 25 nM MCOPPB, pretreatment one hour): had little effect on the DMR response produced by the respective probes
- reduction of probe DMR response (desensitization) [4]: almost unable to reduce the response
- Ki [5]: 0.0857 ± 0.0361 µM
- efficacy (maximal inhibition of radioligand binding) [5]: 100%
- antinociceptive tolerance [6]: no antinociceptive tolerance was observed
- DMR agonist response ([7]; HEK293-Delta cells): unable to trigger a concentration-dependent DMR response
- probe-induced DMR response after DK pretreatment ([7]; HEK293-Delta, 2.5 μM SNC162, pretreatment one hour): had little effect on the DMR response produced by the respective probes
- antagonist effect at high concentration (decrease of probe DMR response) ([7]; HEK293-Delta, SNC162, high-concentration of DK): very weak antagonist effects
- maximum DMR response compared with endomorphin-1 [8]: half of the maximum DMR response of endomorphin-1
- DMR response after naloxone pretreatment ([8]; 100 μM DK, naloxone pretreatment one hour): could be antagonized by naloxone
- EC50 ([8]; DMR agonist assay, read-out: EC50 of DMR response): 16.3 ± 1.05 µM
- concentration-dependent DMR response at MOR compared with purified DK ([8]; semisynthesized material): its activity was close to that of purified DK
- reduction of probe DMR response (desensitization) [9]: almost unable to reduce the response
- reduction of probe DMR response (desensitization) [10]: almost unable to reduce the response
